# Reference: patent US20130197085A1, “AGENT AND METHOD FOR STABILIZING MEMBRANE PROTEIN” (priority 2007, published 2013)
# Columns and labels:
# [1] = test system: P-gp; test: Western blotting of canalicular membrane vesicles (CMVs) from treated rats; format: in vivo, SD rat; details: CMVs from SD rats treated at 0.6 g/kg/day for 10 days
# Method: (§1) […] 4PBA or a vehicle was given to a male SD rat (6- to 7-week-old) for 10 days, divided over 3 administrations. Canalicular membrane vesicles were prepared from the liver of the rat (Akita et al., Biochim Biophys Acta, 1511: 7-16, 2001), and they were then used in Western blotting and a transport assay. Such transport assay was carried out by a rapid filtration method (Hayashi et al., Biochim Biophys Acta, 1738: 54-62, 2005).
# [2] = target: T1, BSEP (Rattus norvegicus, UniProt O70127); test: as above; format: in vivo, SD rat; details: CMVs from SD rats treated at 0.6 g/kg/day for 10 days
# T1 construct: from tissue; host or cells: liver of male SD rats: in vivo for A27, canalicular membrane vesicles for A28 and A29
# T1 sequence (O70127 1-1321): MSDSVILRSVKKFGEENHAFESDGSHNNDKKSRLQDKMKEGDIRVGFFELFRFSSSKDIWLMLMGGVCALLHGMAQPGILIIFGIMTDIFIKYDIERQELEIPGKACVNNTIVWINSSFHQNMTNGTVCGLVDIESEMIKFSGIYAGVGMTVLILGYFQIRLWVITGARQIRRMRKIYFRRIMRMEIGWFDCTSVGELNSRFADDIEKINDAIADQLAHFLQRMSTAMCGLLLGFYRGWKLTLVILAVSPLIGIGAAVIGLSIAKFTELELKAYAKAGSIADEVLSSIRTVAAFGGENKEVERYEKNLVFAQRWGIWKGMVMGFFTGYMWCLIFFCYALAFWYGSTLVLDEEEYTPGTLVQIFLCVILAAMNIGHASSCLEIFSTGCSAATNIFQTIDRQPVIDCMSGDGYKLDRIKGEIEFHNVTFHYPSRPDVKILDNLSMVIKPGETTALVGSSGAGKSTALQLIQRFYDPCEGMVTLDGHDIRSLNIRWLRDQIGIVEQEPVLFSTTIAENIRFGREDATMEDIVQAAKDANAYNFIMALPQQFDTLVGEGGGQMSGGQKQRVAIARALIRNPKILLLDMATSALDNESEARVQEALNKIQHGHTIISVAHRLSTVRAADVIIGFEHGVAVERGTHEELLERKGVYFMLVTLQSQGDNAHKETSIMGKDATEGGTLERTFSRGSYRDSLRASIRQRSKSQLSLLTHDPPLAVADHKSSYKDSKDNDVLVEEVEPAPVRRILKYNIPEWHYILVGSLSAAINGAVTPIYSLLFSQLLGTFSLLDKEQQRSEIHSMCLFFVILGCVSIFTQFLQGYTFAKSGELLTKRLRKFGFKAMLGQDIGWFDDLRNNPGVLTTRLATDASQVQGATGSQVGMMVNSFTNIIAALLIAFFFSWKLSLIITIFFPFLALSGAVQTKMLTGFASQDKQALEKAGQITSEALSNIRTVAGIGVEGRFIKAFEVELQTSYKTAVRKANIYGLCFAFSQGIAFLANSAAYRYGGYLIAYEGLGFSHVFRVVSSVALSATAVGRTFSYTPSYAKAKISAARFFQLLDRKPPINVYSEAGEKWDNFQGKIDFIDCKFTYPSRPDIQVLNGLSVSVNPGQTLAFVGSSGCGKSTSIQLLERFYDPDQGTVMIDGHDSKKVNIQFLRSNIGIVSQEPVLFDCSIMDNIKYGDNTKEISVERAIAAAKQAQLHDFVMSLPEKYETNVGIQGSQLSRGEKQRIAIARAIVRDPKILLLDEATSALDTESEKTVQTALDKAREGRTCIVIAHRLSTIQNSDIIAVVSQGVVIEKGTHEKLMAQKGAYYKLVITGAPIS
# Method: as §1
smiles,measurement,setting,value
"O=C(O)CCCc1ccccc1 [4PBA, 4-phenylbutyric acid]",expression level of P-gp in CMVs,[1],not changed
same,"expression level of BSEP in CMVs, increase",[2],3.2 times
